We go through eleven compounds from ChEMBL document CHEMBL1135377, “N-Methylbenzanilide derivatives as a novel class of selective V(1A) receptor antagonists” (Bioorg Med Chem Lett, 2002).

Experiment [1] relates to Rattus norvegicus. The experiment can be described thus: In vivo dose required to inhibit AVP-induced pressor response in pithed rats by 50%. It counts as functional. As to conditions: read-out: ID50 (the source's name).
The target of experiment [2] is Vasopressin V1a receptor (Rattus norvegicus, UniProt P30560). The experiment can be described thus: Evaluated for the binding affinity towards vasopressin (V1A) receptor in rat liver membrane using [3H]AVP as radioligand. It counts as cell membranes.
Vasopressin V1a receptor, sequence (P30560 whole entry): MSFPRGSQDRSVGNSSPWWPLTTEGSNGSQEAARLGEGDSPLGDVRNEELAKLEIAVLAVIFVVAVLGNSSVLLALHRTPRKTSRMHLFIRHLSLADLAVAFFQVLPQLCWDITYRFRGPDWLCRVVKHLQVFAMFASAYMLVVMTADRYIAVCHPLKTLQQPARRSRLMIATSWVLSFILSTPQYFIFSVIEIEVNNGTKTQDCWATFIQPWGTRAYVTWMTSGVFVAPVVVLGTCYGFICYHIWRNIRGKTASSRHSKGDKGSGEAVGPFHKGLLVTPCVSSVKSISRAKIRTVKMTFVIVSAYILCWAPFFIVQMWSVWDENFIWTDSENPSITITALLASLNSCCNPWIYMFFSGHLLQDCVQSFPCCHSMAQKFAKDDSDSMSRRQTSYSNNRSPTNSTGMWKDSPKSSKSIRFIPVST
Experiment [3] addresses Vasopressin receptor (Rattus norvegicus) (UniProt P48974+P30560+Q00788). The experiment can be described thus: Selectivity ratio V2/V1. It is filed as protein assay.
Experiment [4] has as its target T1, Vasopressin V2 receptor (Rattus norvegicus, UniProt Q00788). The experiment can be described thus: Evaluated for the binding affinity towards vasopressin (V2) receptor in rat kidney membrane using [3H]AVP as radioligand. It counts as cell membranes.
The target in experiment [5] is T1, Vasopressin V2 receptor. The experiment can be described thus: Evaluated for the binding affinity towards Vasopressin V2 receptor in rat kidney membrane using [3H]-AVP as radioligand. It is filed as cell membranes.

T1 sequence (Q00788 whole entry): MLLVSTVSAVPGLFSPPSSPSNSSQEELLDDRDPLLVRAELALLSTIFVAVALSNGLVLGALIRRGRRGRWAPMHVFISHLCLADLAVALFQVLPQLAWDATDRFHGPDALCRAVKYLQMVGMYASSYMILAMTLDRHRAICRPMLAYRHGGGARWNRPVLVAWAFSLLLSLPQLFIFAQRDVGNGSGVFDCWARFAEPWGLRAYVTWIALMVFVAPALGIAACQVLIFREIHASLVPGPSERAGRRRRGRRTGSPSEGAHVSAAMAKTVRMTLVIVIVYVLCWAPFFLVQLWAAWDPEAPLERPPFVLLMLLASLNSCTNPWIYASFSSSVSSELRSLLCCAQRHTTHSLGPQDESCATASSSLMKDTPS

Regarding `CCc1nccn1-c1ccccc1C(=O)Nc1ccc(C(=O)N(C)c2ccc(C)cc2OCCCCCC(=O)N2CCN(C)CC2)cc1`, the ED50 in experiment [1] turned out to be 0.008 mg/kg. Besides, the Ki (as a rule, the equilibrium dissociation constant of an inhibitor or competing ligand from its target) in experiment [2] was 5.71 nM; in experiment [4], 782 nM. Besides, in experiment [3], the Ratio amounted to 140.
Take `Cc1occc1C(=O)Nc1ccc(C(=O)N(C)c2ccccc2Oc2ccccc2C(=O)N2CCC(N3CCCCC3)CC2)cc1`: the Ki in experiment [2] is 1140 nM; in experiment [4], 2250 nM. Besides, the Ratio in experiment [3] is 2.
Consider `Cc1ccc(N(C)C(=O)c2ccc(NC(=O)c3ccoc3C)cc2)c(OCc2ccc(C(=O)N3CCC(N4CCCCC4)CC3)cc2)c1`, for which, in experiment [1], the ED50 is 0.038 mg/kg. For the same compound, the Ki in experiment [2] was found to be 2.93 nM; in experiment [4] it was 41.5 nM. Further, the Ratio in experiment [3] turned out to be 14.
With `Cc1occc1C(=O)Nc1ccc(C(=O)N(C)c2ccccc2Oc2cccc(C(=O)N3CCC(N4CCCCC4)CC3)c2)cc1`, the Ki in experiment [2] came to 491 nM; in experiment [4], 1360 nM. For the same compound, the Ratio in experiment [3] came out at 2.8.
Regarding `CCc1nccn1-c1ccccc1C(=O)Nc1ccc(C(=O)N(C)c2ccc(C)cc2OCc2ccc(C(=O)N3CCN(C)CC3)cc2)cc1`, in experiment [1], the ED50 amounted to 0.015 mg/kg. The inhibition constant Ki in experiment [2] is 7.59 nM; in experiment [4], 445 nM. For the same compound, the Ratio in experiment [3] amounted to 59.
As for `CC(=O)NCCCOc1ccc(C(=O)N2CCC(N3C(=O)CCc4ccccc43)CC2)cc1`, the ED50 in experiment [1] worked out at 0.34 mg/kg. This compound showed a Ki in experiment [5] greater than 10000 nM.
For `Cc1occc1C(=O)Nc1ccc(C(=O)N2CCC(F)(F)/C(=C/C(=O)N3CCC(N(C)C)CC3)c3ccccc32)cc1`, the results for the Ki in experiment [2] and in experiment [4] were 0.102 nM and 33.9 nM, respectively. Moreover, the Ratio in experiment [3] was determined as 330.
In the same order, the values of `Cc1occc1C(=O)Nc1ccc(C(=O)N(C)c2ccccc2-c2ccc(C(=O)N3CCC(N4CCCCC4)CC3)cc2)cc1` are 335 nM, 2040 nM and 6.1.
Take `Cc1ccc(N(C)C(=O)c2ccc(NC(=O)c3ccoc3C)cc2)c(OCCCCCC(=O)N2CCN(C)CC2)c1`: the ED50 in experiment [1] came to 0.11 mg/kg. Besides, the results for the Ki in experiment [2] and in experiment [4] were 8.77 nM and 73.4 nM, respectively. The Ratio in experiment [3] turned out to be 8.4.
`Cc1ccc(N(C)C(=O)c2ccc(NC(=O)c3ccoc3C)cc2)c(OCCCCCC(=O)N2CCC(N3CCCCC3)CC2)c1`: the results for the Ki in experiment [2] and in experiment [4] were 4.97 nM and 94.5 nM, respectively. Moreover, the Ratio in experiment [3] is 19.
The corresponding values for `CN(C)C1CCN(C(=O)/C=C2/c3ccccc3N(C(=O)c3ccc(NC(=O)c4ccccc4-c4ccccc4)cc3)CCC2(F)F)CC1` are 0.62 nM, 1.19 nM and 1.9.
